This is an account of results in patent publication US20220241223A1, “USE OF DISULFIRAM OR ITS DERIVATIVES FOR THE TREATMENT OF MITOCHONDRIAL DISEASES OR DYSFUNCTION” (Universite D'angers, priority 2019, published 2022).

The assay has as its system SHY1 Mutation G137R (shy1) yeast strain. As to the kind of experiment: Halo test of growth on respiratory medium. Type of assay: cell-based, Saccharomyces cerevisiae. To be noted: FIG. 1B; shy1 mutant strain; 10 and 30 nmoles on filter. As to the method:
Each of the various Saccharomyces cerevisiae yeast strains used in examples 1 to 3 contain different specific mutations modeling human mutations resulting in mitochondrial diseases. At different extents, all these yeast strains present growth defect when grown on respiratory medium such as ethanol or glycerol at 28° C. or 36° C. (depending on the strain). […]
More precisely, 200 μL of the various yeast mutant strain grown in liquid YPD rich fermentable medium (1% Yeast Extract, 0.5% Bacto Peptone, 2% Glucose) at 0.4 OD600 were spread on agar-based solid respiratory medium: either YPG (1% Yeast Extract, 0.5% Bacto Peptone, 2% glycerol) or YPE (1% Yeast Extract, 0.5% Bacto Peptone, 2% ethanol). Small sterile filters were then placed on the agar surface and increasing concentrations of DSF were added to the filters at the indicated quantities. […]

On to `CCN(CC)C(=S)S.[Na+]` [DEDTC, Sodium diethyldithiocarbamate], for which the “effect on growth defect on non-fermentable (respiratory) medium” value was “similarly suppresses the growth defect”.
